# Results reported in patent EP1624852B1, “SUN TANNING PRODUCTS AND PRODUCTS FOR TREATMENT OF THE SKIN BEFORE AND AFTER EXPOSURE TO THE SUN” (Gecomwert Anstalt, priority 2003, dated 2004).
# Test system: skin of the forearm
# Test: in vivo tanning test: skin colour read with Minolta CR 200 Chromameter after UVA irradiation
# Set-up: species or system volunteers
# Settings: for Percentage increase WHITE (-L*) / Percentage increase RED (a*) / Percentage increase YELLOW (B*): 15 volunteers, forearm skin, UVA 10 minutes every 24 hours, irradiated untreated skin = 100%
# Protocol: In order to evaluate the effectiveness of the group of components in question in extending the formation of a tan, an in vivo test with a cream containing tyrosine conjugated with 0.750 oleic acid was carried out in vivo on 15 volunteers over a period of 14 days. Three adjacent zones on the skin of the forearm of each volunteer were identified. The first irradiated zone was treated with an emulsion containing only a sun filter (placebo), the second with an emulsion containing both the filter and the lipophilic tyrosine, the third was not treated with any emulsion (control) . The three zones of the skin were irradiated simultaneously with UVA light for 10 minutes every 24 hours (1 hour after application of the creams) for two weeks. The skin colour was read instrumentally using the Minolta® CR 200 Chromameter instrument, a device for measuring the colour of surfaces which is capable of analysing the strength of the colouration using a Xenon lamp, subdividing it into three different parameters (corresponding to the white component (-L*), the red component (a*) and the yellow component (B*)). Each reading was made 24 hours after each exposure to UVA light, in order to minimise instantaneous pigmentation phenomena. The average percentage increase in the colour of the skin treated with lipophilic tyrosine in comparison with the portion of the skin treated with placebo was calculated, assigning a value of 100% to the strength of the colour of the irradiated skin in the absence of emulsion.
# Values of the average percentage increase in the white, red and yellow parameters found are shown in the following table: Percentage increase in the 3 parameters
substance,measurement,setting,value
tyrosine conjugated with oleic acid,Percentage increase WHITE (-L*),"1st day, emulsion with filter and lipophilic tyrosine vs placebo (filter only), reading 24 hours after exposure",-70.20%
same,Percentage increase RED (a*),"1st day, vs placebo",66.60%
same,Percentage increase RED (a*),"6th day, vs placebo",73.16%
same,Percentage increase WHITE (-L*),"6th day, vs placebo",-79.00%
same,Percentage increase YELLOW (B*),"6th day, vs placebo",62.26%
same,Percentage increase RED (a*),"Mean after 14 days, vs placebo",73.50%
same,Percentage increase WHITE (-L*),"Mean after 14 days, vs placebo",-69.00%
same,Percentage increase YELLOW (B*),"Mean after 14 days, vs placebo",65.00%
same,decrease in white with simultaneous increase in the red and yellow components over time,treated skin in comparison with skin treated with placebo,significantly greater
